Test results published in patent US20190008920A1, “OPHTHALMIC COMPOSITIONS AND METHODS OF USE” (Ocugen, Inc., priority 2017, published 2019).

How the values were obtained:
[1] = brimonidine tartrate + cyclosporine nanoemulsion formulation
Method: The partitioning of active pharmaceutical ingredients in oil and aqueous phases of these exemplary nanoemulsion formulations were determined using RP-HPLC methods. […] In nanoemulsion formulation, oil and aqueous phase were separated using ultrafiltration unit by centrifugation process. Quantity of APIs in these oil and aqueous phase was quantified using HPLC method.

[2] = ophthalmic solution 5.0%, administered twice daily; cited from earlier work

SMILES | fraction of API partitioned in aqueous phase ([1]; aqueous phase) [%] | fraction of API partitioned in oil phase ([1]; oil phase) [%] | symptoms of ocular discomfort and eye dryness compared with placebo [2]
Brc1c(NC2=NCCN2)ccc2nccnc12 [brimonidine, 5-Bromo-N-(4,5-dihydro-1H-imidazol-2-yl) quinoxalin-6-amine] | ~70 | ~30 | 
CS(=O)(=O)c1cccc(C[C@H](NC(=O)c2c(Cl)cc3c(c2Cl)CCN(C(=O)c2ccc4ccoc4c2)C3)C(=O)O)c1 [Lifitegrast, N-{[2-(1-Benzofuran-6-ylcarbonyl)-5,7-dichloro-1,2,3,4-tetrahydro-6-isoquinolinyl]carbonyl}-3-(methylsulfonyl)-L-phenylalanine] |  |  | improve symptoms of ocular discomfort and eye dryness
